Data on eleven compounds can be found in ChEMBL document CHEMBL1201862, “PubChem BioAssay data set” (2004).

Some test systems named below: T47D; HCC 2998; HOP-92; NCI-H522; SK-OV-3; EKVX; SW-620; PC-3; KM12; MDA-MB-231; NCI-H23; HL-60; UACC-62; RXF 393; NCI-H460; HCT-116; SK-MEL-28; TK-10; SK-MEL-2; SR.
Holding throughout (experiment): NCI anticancer screen, dose series, 48 h

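Each compound was tested at five concentrations against cells in 96-well plates for 48 hours. At the GI50, growth is halved.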 Calls of active or inactive are those of the source. No stated cut-off is given here; in the data, active = GI50 up to about 1.1 µM and inactive = higher.

Take `S=C(Nc1ccc2c(c1)Cc1ccccc1-2)Nc1ccc2c(c1)Cc1ccccc1-2`: the GI50 is > 100 µM (inactive) in the assay on T47D; > 100 µM (inactive) with HCC 2998; 80.7 µM (inactive) in the assay with HOP-92; > 100 µM (inactive) in the assay with NCI-H522; > 100 µM (inactive) with SK-OV-3; > 100 µM (inactive) in the assay with EKVX. Also, the GI50 is > 100 µM (inactive) with SW-620; > 100 µM (inactive) in the assay on PC-3; > 100 µM (inactive) in the assay with KM12; > 100 µM (inactive) with MDA-MB-231; > 100 µM (inactive) in the assay on NCI-H23; 7.08 µM (inactive) in the assay with HL-60. For the same compound, the GI50 with UACC-62, in the assay with RXF 393, in the assay on NCI-H460, with HCT-116, in the assay on SK-MEL-28 and with TK-10 was > 100 µM (inactive) throughout.

Consider `O=C1C=CC2(O[C@H](c3ccccc3)[C@@H](c3ccccc3)O2)[C@H](Sc2ccccc2O)C1`, for which the GI50 is 0.785 µM (active) with T47D; 0.454 µM (active) in the assay with HCC 2998; 0.52 µM (active) in the assay with HOP-92; 0.0532 µM (active) in the assay on NCI-H522; 2.02 µM (inactive) in the assay with SK-MEL-2; 3.27 µM (inactive) in the assay with SK-OV-3. The GI50 is 1.43 µM (inactive) in the assay on EKVX; 0.0824 µM (active) in the assay with SW-620; 0.7 µM (active) with PC-3; 1.98 µM (inactive) in the assay with KM12; 0.839 µM (active) with MDA-MB-231; 0.708 µM (active) with NCI-H23. The GI50 in the assay with HL-60 was 0.264 µM (active); with UACC-62, 0.841 µM (active); in the assay on RXF 393, 0.238 µM (active); in the assay on NCI-H460, 2.13 µM (inactive); in the assay on HCT-116, 0.122 µM (active); in the assay on SK-MEL-28 it was 1.36 µM (inactive). The GI50 in the assay with TK-10 was 0.29 µM (active).

Take `CCCCNC(=S)Nc1nc(C(=O)NNC(=S)NCC)cs1`: the GI50 in the assay with T47D was 16.7 µM (inactive); with HCC 2998, > 100 µM (inactive); in the assay with NCI-H522 it was > 100 µM (inactive); in the assay with SK-MEL-2, > 100 µM (inactive); in the assay on SR it was 6.73 µM (inactive); in the assay with SK-OV-3 it was > 100 µM (inactive). The GI50 is 16.5 µM (inactive) in the assay with EKVX; 97.9 µM (inactive) with SW-620; > 100 µM (inactive) in the assay on PC-3; 76.9 µM (inactive) in the assay with KM12; 99.8 µM (inactive) in the assay with MDA-MB-231; > 100 µM (inactive) in the assay on NCI-H23. The GI50 is > 100 µM (inactive) with UACC-62, 53.1 µM (inactive) with HCT-116 and > 100 µM (inactive) in the assay on TK-10.

With `Cc1ccc(S(=O)(=O)N2CC2CCCCC=O)cc1` (stereo not given), the GI50 was > 100 µM (inactive) in the assay on T47D; > 100 µM (inactive) in the assay with HOP-92; 72.8 µM (inactive) in the assay on NCI-H522; > 100 µM (inactive) in the assay on SK-MEL-2; 17.1 µM (inactive) with SR; > 100 µM (inactive) in the assay on SK-OV-3. For the same compound, the GI50 was > 100 µM (inactive) with EKVX; 52.7 µM (inactive) in the assay on SW-620; > 100 µM (inactive) in the assay with PC-3; 63.1 µM (inactive) in the assay with KM12; > 100 µM (inactive) in the assay on MDA-MB-231; > 100 µM (inactive) in the assay on NCI-H23. Also, the GI50 with UACC-62 was 50.7 µM (inactive); in the assay with RXF 393, > 100 µM (inactive); in the assay on HCT-116, 57 µM (inactive); with SK-MEL-28, > 100 µM (inactive); with TK-10, > 100 µM (inactive).

In the case of `CN(C)c1ccc(/C=C(\NC(=O)c2ccccc2)C(=O)NC(Cc2c[nH]c3ccccc23)C(=O)O)cc1` (stereo not given), the GI50 was > 100 µM (inactive) in the assay on T47D; > 100 µM (inactive) in the assay with HCC 2998; > 100 µM (inactive) with HOP-92; 47.6 µM (inactive) in the assay on NCI-H522; > 100 µM (inactive) in the assay on SK-MEL-2; > 100 µM (inactive) in the assay on SK-OV-3. Further, the GI50 with EKVX, in the assay with SW-620, with PC-3, with KM12, in the assay on MDA-MB-231 and in the assay on NCI-H23 was > 100 µM (inactive) each time. Further, the GI50 with HL-60, with UACC-62, in the assay on RXF 393, in the assay with NCI-H460, in the assay on HCT-116 and in the assay on SK-MEL-28 was > 100 µM (inactive) each time. In the assay with TK-10, the GI50 is > 100 µM (inactive).

For `CN(C)CCNCc1ccc2c(-c3ccccc3)nc3cc(Cl)c(Cl)cc3n12`, the GI50 in the assay with T47D is 4.94 µM (inactive); in the assay on HCC 2998, 2.33 µM (inactive); with HOP-92 it was 13.1 µM (inactive); with NCI-H522, 13.6 µM (inactive); in the assay with SK-MEL-2, 9.57 µM (inactive); with SK-OV-3 it was 6.43 µM (inactive). The GI50 in the assay with EKVX is 15.3 µM (inactive); in the assay with SW-620, 8.83 µM (inactive); in the assay on PC-3, 10.9 µM (inactive); with KM12, 9.73 µM (inactive); with MDA-MB-231, 10.2 µM (inactive); in the assay with NCI-H23, 14.6 µM (inactive). Moreover, the GI50 in the assay on HL-60 is 2.01 µM (inactive); with UACC-62, 8.85 µM (inactive); in the assay on RXF 393 it was 4.98 µM (inactive); in the assay on NCI-H460, 9.68 µM (inactive); in the assay with HCT-116, 7.74 µM (inactive); in the assay on SK-MEL-28, 5.78 µM (inactive). Moreover, the GI50 in the assay with TK-10 is 10.9 µM (inactive).

Regarding `Cc1c/c(=N\c2ccc3c(c2)c(N)cc(C)[n+]3C)nc(N)n1C`, the GI50 in the assay with T47D, with HOP-92, in the assay on NCI-H522, in the assay on SK-MEL-2, in the assay on SR and in the assay on SK-OV-3 was > 100 µM (inactive) in each case. In addition, the GI50 in the assay with EKVX, in the assay on SW-620, in the assay on PC-3, with KM12, in the assay on MDA-MB-231 and in the assay on NCI-H23 was > 100 µM (inactive) in each case. In addition, the GI50 in the assay on UACC-62, with RXF 393, with NCI-H460, in the assay with HCT-116, with SK-MEL-28 and in the assay with TK-10 was > 100 µM (inactive) each time.

In the case of `COc1ccc(C(O)c2ccccn2)cc1` (stereo not given), the GI50 in the assay on T47D, with HOP-92, in the assay with NCI-H522, with SK-MEL-2, with SR and in the assay with SK-OV-3 was > 100 µM (inactive) throughout. Further, the GI50 in the assay with EKVX, in the assay with SW-620, in the assay on PC-3, with KM12, in the assay on MDA-MB-231 and in the assay on NCI-H23 was > 100 µM (inactive) throughout. The GI50 in the assay with UACC-62, in the assay on RXF 393, with NCI-H460, in the assay on HCT-116, in the assay with SK-MEL-28 and in the assay on TK-10 was > 100 µM (inactive) throughout.

In the case of `O=S(=O)(O)c1cc(S(=O)(=O)O)c2c(/N=N/c3ccc(S(=O)(=O)O)c4ccccc34)c(O)ccc2c1`, the GI50 in the assay with T47D, with HOP-92, with NCI-H522, in the assay with SK-MEL-2, in the assay with SK-OV-3 and in the assay on EKVX was > 100 µM (inactive) each time. Further, the GI50 in the assay with SW-620, with PC-3, in the assay with KM12, in the assay on MDA-MB-231, in the assay with NCI-H23 and in the assay with HL-60 was > 100 µM (inactive) in each case. The GI50 in the assay with UACC-62, in the assay on RXF 393, in the assay with HCT-116, in the assay with SK-MEL-28 and in the assay on TK-10 was > 100 µM (inactive) in each case.

As for `Cc1ccc(-n2nnc(C(N)=O)c2O)cc1`, the GI50 in the assay with T47D, with HCC 2998, in the assay on NCI-H522, in the assay with SK-OV-3, in the assay on EKVX and in the assay on SW-620 was > 100 µM (inactive) each time. Moreover, the GI50 in the assay on PC-3, in the assay on KM12, in the assay with MDA-MB-231, in the assay with NCI-H23, in the assay with HL-60 and with UACC-62 was > 100 µM (inactive) each time. Further, the GI50 with RXF 393, in the assay on NCI-H460, with HCT-116, in the assay on SK-MEL-28 and in the assay with TK-10 was > 100 µM (inactive) in each case.

Regarding `CC(=O)O[C@H]1C[C@H](O[C@H]2[C@@H](O)C[C@H](O[C@H]3[C@@H](O)C[C@H](O[C@H]4CC[C@@]5(C)[C@H](CC[C@@H]6[C@@H]5CC[C@]5(O)[C@@H](C7=CC(=O)OC7)CC[C@]65O)C4)O[C@@H]3C)O[C@@H]2C)O[C@H](C)[C@H]1O[C@@H]1O[C@H](CO)[C@@H](O)[C@H](O)[C@H]1O`, the GI50 with T47D is 0.553 µM (active); with HCC 2998, 1.52 µM (inactive); in the assay on HOP-92, 0.792 µM (active); with NCI-H522, 0.0492 µM (active); in the assay with SK-MEL-2, 0.498 µM (active); with SK-OV-3, 0.555 µM (active). For the same compound, the GI50 in the assay with EKVX is 0.233 µM (active); with SW-620, 0.407 µM (active); with PC-3, 0.328 µM (active); with KM12, 0.565 µM (active); in the assay with MDA-MB-231, 2.35 µM (inactive); in the assay with NCI-H23, 0.137 µM (active). Also, the GI50 in the assay with HL-60 was 0.223 µM (active); in the assay on UACC-62 it was 0.769 µM (active); with NCI-H460 it was 0.106 µM (active); in the assay on HCT-116, 0.243 µM (active); in the assay with SK-MEL-28 it was 1.5 µM (inactive); in the assay on TK-10 it was 0.428 µM (active).
